Structures can show the parent of a compound that is named as a salt.
These compounds were tested against T1, human NCX1 (Homo sapiens, UniProt P32418) (assay: NCX1 inhibition, reverse mode (Ca2+ influx into cells), FLIPR Fluo-4 assay). Conditions: inhibition of NCX1 in reverse mode (Ca2+ influx into cells); read-out: NCX1rv IC50.
T1 construct: expressed in transfected cells
Format: cell-based
Procedure, shortened: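 CHO cells stably expressing human NCX1 were loaded with 2 µM Fluo-4 AM for 80 min at room temperature, then preincubated with compound for 45 min at 16 °C in pH 7.4 HEPES buffer (3.5 mM CaCl2, 2.5 mM probenecid). Reverse-mode Ca2+ influx was triggered by 20 µM final gramicidin and read at 520 nm on FLIPR. IC50 came from % inhibition of max−min fluorescence.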

Structure (SMILES) | IC50
Cc1ccc(F)cc1C1CCc2cc(Oc3ncc(C(=O)NCCN4CCNC4=O)s3)ccc2O1 (centres unmarked) [compound 349] | 0.2 µM
O=C(O)C[C@H](O)[C@H](CC1CCCCC1)NC(=O)c1cnc(Oc2ccc3c(c2)CC[C@@H](c2ccccc2)O3)s1 [compound 240] | 1.1 µM
Cc1noc(C)c1CCNC(=O)c1cnc(Oc2ccc3c(c2)CCC(c2cccc(OC(C)C)c2)O3)s1 (centres unmarked) [compound 97] | 1.2 µM
O=C(Cc1ccncc1)NCc1cnc(Oc2ccc3c(c2)CCC(c2cccc(F)c2)O3)s1 (centres unmarked) [compound 46, hydrochloride] | 0.2 µM
O=C(NCc1ccno1)c1cnc(Oc2ccc3c(c2)CCC(c2cnccn2)O3)s1 (centres unmarked) [compound 309] | 4.7 µM
C1=C(CNCc2cnc(Oc3ccc4c(c3)CCC(c3ccccc3)O4)s2)N2CCCN=C2S1 (centres unmarked) [compound 144] | 0.8 µM
COC(=O)CNC(=O)c1cnc(Oc2ccc3c(c2)CCC(c2cccnc2)O3)s1 (centres unmarked) [compound 250] | 1.2 µM
CCOC(=O)[C@H](C)NC(=O)c1cnc(Oc2ccc3c(c2)CCC(c2cccnc2)O3)s1 (some centres unmarked) [compound 276] | 0.4 µM
COC(=O)C1(NC(=O)c2cnc(Oc3ccc4c(c3)CC[C@@H](c3ccccc3)O4)s2)CCCC1 [compound 187] | 0.6 µM
CS(=O)(=O)c1ccc(C2CCc3cc(Oc4ncc(C(=O)NCc5ccno5)s4)ccc3O2)cc1 (centres unmarked) [compound 301] | 6.9 µM
O=C(CN1C(=O)CNC1=O)NCc1cnc(Oc2ccc3c(c2)CCC(c2ccccc2)O3)s1 (centres unmarked) [compound 95] | 0.6 µM
Oc1cc(CNCc2cnc(Oc3ccc4c(c3)CCC(c3ccccc3)O4)s2)ccn1 (centres unmarked) [compound 154] | 0.3 µM
CCCNC(=O)c1sc(Oc2ccc3c(c2)CCC(c2ccccc2C)O3)nc1C (centres unmarked) [compound 332] | 10 µM
O=C(c1cnc(Oc2ccc3c(c2)CCC(c2ccccc2)O3)s1)N1CCCCC1 (centres unmarked) [compound 316] | 0.5 µM
O=C(NCc1ccno1)c1cnc(Oc2ccc3c(c2)CCC(c2ccc(Cl)nc2)O3)s1 (centres unmarked) [compound 277, hydrochloride] | 2 µM
CN[C@H]1CN(C(=O)c2cnc(Oc3ccc4c(c3)CC[C@@H](c3ccccc3)O4)s2)CC[C@H]1C [compound 285, hydrochloride] | 0.9 µM
Cc1nc(C)c(S(=O)(=O)NCc2cnc(Oc3ccc4c(c3)CCC(c3ccccc3)O4)s2)s1 (centres unmarked) [compound 126] | 0.6 µM
O=C(NCc1ccno1)c1cnc(Oc2ccc3c(c2)CCC(c2ccsc2)O3)s1 (centres unmarked) [compound 212] | 0.3 µM
N#Cc1ccc(CNCc2cnc(Oc3ccc4c(c3)CCC(c3ccccc3)O4)s2)cn1 (centres unmarked) [compound 157] | 0.2 µM

Structure (SMILES) | IC50
O=C(NCCO)c1csc(Oc2ccc3c(c2)CC[C@@H](c2ccccc2)O3)n1 [compound 350] | 0.12 µM
CCCNCc1cnc(Oc2ccc3c(c2)CCC(c2ccccc2)O3)s1 (centres unmarked) [compound 116] | 0.2 µM
Cc1cccc(C)c1C1CCc2cc(Oc3ncc(C(=O)NCCO)s3)ccc2O1 (centres unmarked) [compound 337] | 7.6 µM
O=C(N[C@@H](Cc1ccccc1)C(=O)O)c1cnc(Oc2ccc3c(c2)CC[C@@H](c2ccccc2)O3)s1 [compound 244] | 0.6 µM
Cc1ccccc1C1CCc2cc(Oc3ncc(C(=O)NCCc4c(C)noc4C)s3)ccc2O1 (centres unmarked) [compound 176] | 0.4 µM
c1ccc(C2CCc3cc(Oc4ncc(CN5CCCC5)s4)ccc3O2)cc1 (centres unmarked) [compound 104] | 0.4 µM
Cc1cc(C)nc(CNCc2cnc(Oc3ccc4c(c3)CCC(c3ccccc3)O4)s2)n1 (centres unmarked) [compound 143] | 0.5 µM
COc1c(F)cccc1C1CCc2cc(Oc3ncc(C(=O)NCCO)s3)ccc2O1 (centres unmarked) [compound 367] | 0.27 µM
Cc1noc(C)c1CNCc1cnc(Oc2ccc3c(c2)CCC(c2ccccc2)O3)s1 (centres unmarked) [compound 152] | 0.3 µM
O=C(NC1(C(=O)O)CCCC1)c1cnc(Oc2ccc3c(c2)CC[C@@H](c2ccccc2)O3)s1 [compound 195] | 0.7 µM
CC[C@H](C)[C@H](NC(=O)c1cnc(Oc2ccc3c(c2)CCC(c2cccnc2)O3)s1)C(=O)O (some centres unmarked) [compound 270] | 12.5 µM
CC1(C)CN(C(=O)c2cnc(Oc3ccc4c(c3)CC[C@@H](c3ccccc3)O4)s2)CCN1 [compound 282] | 1.2 µM
CC1(C(=O)O)CCN(C(=O)c2cnc(Oc3ccc4c(c3)CC[C@@H](c3ccccc3)O4)s2)C1 (some centres unmarked) [compound 239] | 2.4 µM
Cc1ccc(F)cc1C1CCc2cc(Oc3ncc(C(=O)N4CC[C@@H](O)C4)s3)ccc2O1 (some centres unmarked) [compound 356] | 0.54 µM
O=C(NCc1ccncc1)c1cnc(Oc2ccc3c(c2)CCC(c2ccsc2)O3)s1 (centres unmarked) [compound 60, hydrochloride] | 0.1 µM
CC(C)[C@H](NC(=O)c1cnc(Oc2ccc3c(c2)CCC(c2cccnc2)O3)s1)C(=O)O (some centres unmarked) [compound 272] | 15.6 µM
N[C@H]1C[C@@H]1NC(=O)c1cnc(Oc2ccc3c(c2)CCC(c2cccnc2)O3)s1 (some centres unmarked) [compound 267, hydrochloride] | 0.6 µM
O=C(NCc1cnc(Oc2ccc3c(c2)CCC(c2cccc(F)c2)O3)s1)c1cccnc1 (centres unmarked) [compound 44, hydrochloride] | 0.2 µM

The next lines start with the values.

IC50 | Structure (SMILES)
0.2 µM | CCOC(=O)[C@H](C)NC(=O)c1cnc(Oc2ccc3c(c2)CC[C@@H](c2ccccc2)O3)s1 [compound 180]
0.5 µM | O=C(NCC1CCCCN1)c1cnc(Oc2ccc3c(c2)CC[C@@H](c2ccccc2)O3)s1 (some centres unmarked) [compound 287]
0.16 µM | CC(O)CNC(=O)c1cnc(Oc2ccc3c(c2)CCC(c2ccccc2)O3)s1 (centres unmarked) [compound 354]
0.2 µM | Cc1noc(C)c1C(=O)NCc1cnc(Oc2ccc3c(c2)CCC(c2ccccc2)O3)s1 (centres unmarked) [compound 65]
0.3 µM | CC[C@@H](C)[C@H](CO)NC(=O)c1cnc(Oc2ccc3c(c2)CC[C@@H](c2ccccc2)O3)s1 [compound 209]
0.4 µM | Cc1nn(C)cc1CNCc1cnc(Oc2ccc3c(c2)CCC(c2ccccc2)O3)s1 (centres unmarked) [compound 137]
0.3 µM | CCn1cc(S(=O)(=O)NCc2cnc(Oc3ccc4c(c3)CCC(c3ccccc3)O4)s2)cn1 (centres unmarked) [compound 132]
0.6 µM | O=C(O)CNCc1cnc(Oc2ccc3c(c2)CC[C@@H](c2ccccc2)O3)s1 [compound 246]
0.7 µM | CCOC(=O)[C@@H](NC(=O)c1cnc(Oc2ccc3c(c2)CC[C@@H](c2ccccc2)O3)s1)C(C)C [compound 186]
0.3 µM | CC(C)NCc1cnc(Oc2ccc3c(c2)CCC(c2ccccc2)O3)s1 (centres unmarked) [compound 113]
0.3 µM | Cc1c(CNC(=O)c2cnc(Oc3ccc4c(c3)CC[C@@H](c3ccccc3)O4)s2)cnn1C [compound 62]
0.4 µM | Cc1nc(S(=O)(=O)NCc2cnc(Oc3ccc4c(c3)CCC(c3ccccc3)O4)s2)cn1C (centres unmarked) [compound 163]
0.4 µM | Cc1csc(CCNCc2cnc(Oc3ccc4c(c3)CCC(c3ccccc3)O4)s2)n1 (centres unmarked) [compound 151]
0.1 µM | COC(=O)CNCc1cnc(Oc2ccc3c(c2)CC[C@@H](c2ccccc2)O3)s1 [compound 245]
0.5 µM | O=C(CN1CCCC1=O)NCc1cnc(Oc2ccc3c(c2)CCC(c2ccccc2)O3)s1 (centres unmarked) [compound 165]
0.9 µM | Cc1noc(C)c1CCC(=O)NCc1cnc(Oc2ccc3c(c2)CCC(c2ccccc2)O3)s1 (centres unmarked) [compound 94]
0.3 µM | N[C@H]1C[C@@H]1NC(=O)c1cnc(Oc2ccc3c(c2)CC[C@@H](c2ccccc2)O3)s1 [compound 256]
0.3 µM | Cc1noc(C)c1CCCNC(=O)c1cnc(Oc2ccc3c(c2)CCC(c2ccccc2)O3)s1 (centres unmarked) [compound 38]
0.4 µM | CC(NC(=O)c1cnc(Oc2ccc3c(c2)CCC(c2ccccc2)O3)s1)c1ccncc1 (centres unmarked) [compound 6]

IC50 | Structure (SMILES)
0.2 µM | NC1C[C@@H]1NC(=O)c1cnc(Oc2ccc3c(c2)CC[C@@H](c2ccccc2)O3)s1 (some centres unmarked) [compound 284, hydrochloride]
0.6 µM | O=C(CCn1cccn1)NCc1cnc(Oc2ccc3c(c2)CCC(c2ccccc2)O3)s1 (centres unmarked) [compound 90]
0.5 µM | O=C(NC[C@H]1CCCC[C@H]1O)c1cnc(Oc2ccc3c(c2)CC[C@@H](c2ccccc2)O3)s1 [compound 207]
0.9 µM | N[C@@H](CO)C(=O)NCc1cnc(Oc2ccc3c(c2)CCC(c2ccccc2)O3)s1 (some centres unmarked) [compound 340, hydrochloride]
0.1 µM | NCc1cnc(Oc2ccc3c(c2)CCC(c2ccccc2)O3)s1 (centres unmarked) [compound 57, C-[2-(2-Phenyl-chroman-6-yloxy)-thiazol-5-yl]-methylamine]
0.1 µM | O=C(NCc1cnc(Oc2ccc3c(c2)CCC(c2ccccc2)O3)s1)c1cccnc1 (centres unmarked) [compound 15, hydrochloride]
0.2 µM | O=C(NCc1ccnc(N2CCOCC2)c1)c1cnc(Oc2ccc3c(c2)CCC(c2ccccc2)O3)s1 (centres unmarked) [compound 28]
0.2 µM | COC(=O)CNC(=O)c1cnc(Oc2ccc3c(c2)CCC(c2ccccc2)O3)s1 (centres unmarked) [compound 294]
1.5 µM | Cc1ccc(C2CCc3cc(Oc4ncc(C(=O)NCc5ccno5)s4)ccc3O2)cn1 (centres unmarked) [compound 232]
0.4 µM | NCC(=O)NCc1cnc(Oc2ccc3c(c2)CC[C@@H](c2ccccc2)O3)s1 [compound 302]
0.2 µM | Cc1c(CNC(=O)c2cnc(Oc3ccc4c(c3)CCC(c3cccc(F)c3)O4)s2)cnn1C (centres unmarked) [compound 51]
0.4 µM | Cc1c(C(C)NCc2cnc(Oc3ccc4c(c3)CCC(c3ccccc3)O4)s2)cnn1C (centres unmarked) [compound 148]
0.6 µM | COC(=O)[C@@H](NC(=O)c1cnc(Oc2ccc3c(c2)CC[C@@H](c2ccccc2)O3)s1)C(C)(C)C [compound 220]
0.2 µM | O=C(NCc1cnc(Oc2ccc3c(c2)CCC(c2ccccc2)O3)s1)c1ccncc1 (centres unmarked) [compound 79]
0.1 µM | O=C(NCc1cnc(Oc2ccc3c(c2)CCC(c2ccccc2)O3)s1)c1ccno1 (centres unmarked) [compound 48]
0.4 µM | O=C(NCc1ccno1)c1cnc(Oc2ccc3c(c2)CC[C@H](c2ccccc2)O3)s1 [compound 172]
0.7 µM | C[C@@H](NC(=O)c1cnc(Oc2ccc3c(c2)CC[C@@H](c2ccccc2)O3)s1)C(=O)O [compound 194]
0.5 µM | Cc1nc(Oc2ccc3c(c2)CCC(c2ccccc2)O3)sc1C(=O)NCc1ccnc(Cl)c1 (centres unmarked) [compound 167, hydrochloride]

From patent US20140243292A1, “SUBSITUTED 2-(CHROMAN-6-YLOXYL)-THIAZOLES AND THEIR USE AS PHARMACEUTICALS” (Sanofi, priority 2011, published 2014)
